Measured values from ChEMBL document CHEMBL1143738, “Inhibition of S. aureus alpha-hemolysin and B. anthracis lethal toxin by beta-cyclodextrin derivatives” (Bioorg Med Chem, 2007).
Calls of active or inactive are those of the source. The rule behind the calls is not given here.

Columns and labels:
[1] = test system: RAW264.7; experiment: Toxicity against mouse RAW264.7 cells upto 100 uM; assay type: cell-based
[2] = test system: RAW264.7; experiment: Inhibition of Bacillus anthracis lethal toxin-induced cytotoxicity in mouse RAW264.7 cells; assay type: functional, cell-based
[3] = test system: Erythrocyte; experiment: Inhibition of Staphylococcus aureus alpha-hemolysin-induced cytotoxicity against rabbit RBC; assay type: functional, cell-based; settings: Oryctolagus cuniculus
[4] = Toxicity against mouse RAW264.7 cells; assay type: cell-based
[5] = test system: RAW264.7; experiment: Protection against Bacillus anthracis lethal toxin-induced cell death in mouse RAW264.7cells assessed as cell viability in MTS colorimetric assay; assay type: functional, cell-based
[6] = biological target: T1, Alpha-hemolysin (Staphylococcus aureus) (UniProt P09616); experiment: Inhibition of Staphylococcus aureus alpha-hemolysin reconstituted in diphytanoylphosphatidylcholine lipid membranes assessed as inhibition of channel conductance at 2 uM
T1 sequence (whole entry): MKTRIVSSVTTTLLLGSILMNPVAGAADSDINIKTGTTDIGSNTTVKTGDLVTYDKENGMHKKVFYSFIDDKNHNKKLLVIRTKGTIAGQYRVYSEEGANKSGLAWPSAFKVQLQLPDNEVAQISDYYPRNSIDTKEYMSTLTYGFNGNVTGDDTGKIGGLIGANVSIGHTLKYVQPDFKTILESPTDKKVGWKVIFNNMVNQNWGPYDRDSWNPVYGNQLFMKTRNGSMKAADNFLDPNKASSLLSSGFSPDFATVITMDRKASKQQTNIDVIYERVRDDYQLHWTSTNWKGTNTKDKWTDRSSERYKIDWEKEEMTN

[7] = test system: Erythrocyte; experiment: Protection against Staphylococcus aureus alpha-hemolysin-induced cell death in rabbit RBC assessed as cell viability in MTS colorimetric assay; assay type: functional, cell-based; settings: Oryctolagus cuniculus
[8] = biological target: Protective antigen (Bacillus anthracis) (UniProt P13423); experiment: Inhibition of Bacillus anthracis protective antigen 63 reconstituted in diphytanoylphosphatidylcholine lipid membranes assessed as inhibition of channel conductance at 5 uM
Protective antigen (Bacillus anthracis), sequence (P13423 whole entry): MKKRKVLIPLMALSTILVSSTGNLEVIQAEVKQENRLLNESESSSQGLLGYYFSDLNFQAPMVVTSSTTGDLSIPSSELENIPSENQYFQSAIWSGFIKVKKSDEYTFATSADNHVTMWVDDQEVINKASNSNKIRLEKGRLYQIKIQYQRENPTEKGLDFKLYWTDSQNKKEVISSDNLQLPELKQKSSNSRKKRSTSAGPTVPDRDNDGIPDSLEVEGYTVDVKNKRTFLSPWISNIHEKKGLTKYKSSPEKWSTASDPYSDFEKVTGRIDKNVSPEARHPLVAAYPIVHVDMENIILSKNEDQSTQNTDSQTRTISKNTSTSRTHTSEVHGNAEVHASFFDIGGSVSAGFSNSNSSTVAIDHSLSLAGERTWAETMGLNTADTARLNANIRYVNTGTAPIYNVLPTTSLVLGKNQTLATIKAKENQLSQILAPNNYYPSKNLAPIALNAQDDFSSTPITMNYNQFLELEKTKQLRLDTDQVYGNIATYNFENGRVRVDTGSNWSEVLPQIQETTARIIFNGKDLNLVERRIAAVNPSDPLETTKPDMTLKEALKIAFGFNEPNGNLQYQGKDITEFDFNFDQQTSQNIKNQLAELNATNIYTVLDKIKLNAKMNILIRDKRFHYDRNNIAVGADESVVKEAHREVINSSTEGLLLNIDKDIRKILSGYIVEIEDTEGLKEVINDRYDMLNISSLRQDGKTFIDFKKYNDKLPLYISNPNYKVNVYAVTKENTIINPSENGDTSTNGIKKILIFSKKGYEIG

SMILES | Activity [1] | IC50 [2] | IC50 [3] | IC50 [4] | Activity [5] | Activity [6] | Activity [7] | Activity [8]
N[C@@H](CSCc1ccccc1)CC(=O)NC[C@H]1O[C@@H]2O[C@H]3[C@H](O)[C@@H](O)[C@@H](O[C@H]4[C@H](O)[C@@H](O)[C@@H](O[C@H]5[C@H](O)[C@@H](O)[C@@H](O[C@H]6[C@H](O)[C@@H](O)[C@@H](O[C@H]7[C@H](O)[C@@H](O)[C@@H](O[C@H]8[C@H](O)[C@@H](O)[C@@H](O[C@H]1[C@H](O)[C@H]2O)O[C@@H]8CNC(O)[C@@H](N)CSCc1ccccc1)O[C@@H]7CNC(=O)[C@@H](N)CSCc1ccccc1)O[C@@H]6CNC(=O)[C@@H](N)CSCc1ccccc1)O[C@@H]5CNC(=O)[C@@H](N)CSCc1ccccc1)O[C@@H]4CNC(=O)[C@@H](N)CSCc1ccccc1)O[C@@H]3CNC(=O)[C@@H](N)CSCc1ccccc1.O=C(O)C(F)(F)F.O=C(O)C(F)(F)F.O=C(O)C(F)(F)F.O=C(O)C(F)(F)F.O=C(O)C(F)(F)F.O=C(O)C(F)(F)F.O=C(O)C(F)(F)F (stereo partly drawn) | Non-toxic | > 25 µM | 10.6 µM | 0.6 µM | – | – | – | –
CC(C)(C)OC(=O)N[C@@H](CCCN)CC(=O)NC[C@H]1O[C@@H]2O[C@H]3[C@H](O)[C@@H](O)[C@@H](O[C@H]4[C@H](O)[C@@H](O)[C@@H](O[C@H]5[C@H](O)[C@@H](O)[C@@H](O[C@H]6[C@H](O)[C@@H](O)[C@@H](O[C@H]7[C@H](O)[C@@H](O)[C@@H](O[C@H]8[C@H](O)[C@@H](O)[C@@H](O[C@H]1[C@H](O)[C@H]2O)O[C@@H]8CNC(O)[C@H](CCCN)NC(=O)OC(C)(C)C)O[C@@H]7CNC(=O)[C@H](CCCN)NC(=O)OC(C)(C)C)O[C@@H]6CNC(=O)[C@H](CCCN)NC(=O)OC(C)(C)C)O[C@@H]5CNC(=O)[C@H](CCCN)NC(=O)OC(C)(C)C)O[C@@H]4CNC(=O)[C@H](CCCN)NC(=O)OC(C)(C)C)O[C@@H]3CNC(=O)[C@H](CCCN)NC(=O)OC(C)(C)C.Cl.Cl.Cl.Cl.Cl.Cl (stereo partly drawn) | Non-toxic | 3.5 µM | 5.6 µM | 0.6 µM | Active | Active | Active | Active
N[C@@H](COCc1ccccc1)CC(=O)NC[C@H]1O[C@@H]2O[C@H]3[C@H](O)[C@@H](O)[C@@H](O[C@H]4[C@H](O)[C@@H](O)[C@@H](O[C@H]5[C@H](O)[C@@H](O)[C@@H](O[C@H]6[C@H](O)[C@@H](O)[C@@H](O[C@H]7[C@H](O)[C@@H](O)[C@@H](O[C@H]8[C@H](O)[C@@H](O)[C@@H](O[C@H]1[C@H](O)[C@H]2O)O[C@@H]8CNC(O)[C@@H](N)COCc1ccccc1)O[C@@H]7CNC(=O)[C@@H](N)COCc1ccccc1)O[C@@H]6CNC(=O)[C@@H](N)COCc1ccccc1)O[C@@H]5CNC(=O)[C@@H](N)COCc1ccccc1)O[C@@H]4CNC(=O)[C@@H](N)COCc1ccccc1)O[C@@H]3CNC(=O)[C@@H](N)COCc1ccccc1.O=C(O)C(F)(F)F.O=C(O)C(F)(F)F.O=C(O)C(F)(F)F.O=C(O)C(F)(F)F.O=C(O)C(F)(F)F.O=C(O)C(F)(F)F.O=C(O)C(F)(F)F (stereo partly drawn) | Non-toxic | > 25 µM | 6.1 µM | 0.6 µM | – | – | – | –
Cl.Cl.Cl.Cl.Cl.Cl.Cl.N[C@@H](CS)CC(=O)NC[C@H]1O[C@@H]2O[C@H]3[C@H](O)[C@@H](O)[C@@H](O[C@H]4[C@H](O)[C@@H](O)[C@@H](O[C@H]5[C@H](O)[C@@H](O)[C@@H](O[C@H]6[C@H](O)[C@@H](O)[C@@H](O[C@H]7[C@H](O)[C@@H](O)[C@@H](O[C@H]8[C@H](O)[C@@H](O)[C@@H](O[C@H]1[C@H](O)[C@H]2O)O[C@@H]8CNC(O)[C@@H](N)CS)O[C@@H]7CNC(=O)[C@@H](N)CS)O[C@@H]6CNC(=O)[C@@H](N)CS)O[C@@H]5CNC(=O)[C@@H](N)CS)O[C@@H]4CNC(=O)[C@@H](N)CS)O[C@@H]3CNC(=O)[C@@H](N)CS (stereo partly drawn) | Non-toxic | > 25 µM | > 25 µM | 0.6 µM | – | – | – | –
Cl.Cl.Cl.Cl.Cl.Cl.Cl.Cl.Cl.Cl.Cl.Cl.Cl.Cl.NCCC[C@H](N)CC(=O)NC[C@H]1O[C@@H]2O[C@H]3[C@H](O)[C@@H](O)[C@@H](O[C@H]4[C@H](O)[C@@H](O)[C@@H](O[C@H]5[C@H](O)[C@@H](O)[C@@H](O[C@H]6[C@H](O)[C@@H](O)[C@@H](O[C@H]7[C@H](O)[C@@H](O)[C@@H](O[C@H]8[C@H](O)[C@@H](O)[C@@H](O[C@H]1[C@H](O)[C@H]2O)O[C@@H]8CNC(O)[C@@H](N)CCCN)O[C@@H]7CNC(=O)[C@@H](N)CCCN)O[C@@H]6CNC(=O)[C@@H](N)CCCN)O[C@@H]5CNC(=O)[C@@H](N)CCCN)O[C@@H]4CNC(=O)[C@@H](N)CCCN)O[C@@H]3CNC(=O)[C@@H](N)CCCN (stereo partly drawn) | Non-toxic | > 25 µM | > 25 µM | 0.6 µM | – | – | – | –
Cl.Cl.Cl.Cl.Cl.Cl.Cl.N[C@@H](CO)CC(=O)NC[C@H]1O[C@@H]2O[C@H]3[C@H](O)[C@@H](O)[C@@H](O[C@H]4[C@H](O)[C@@H](O)[C@@H](O[C@H]5[C@H](O)[C@@H](O)[C@@H](O[C@H]6[C@H](O)[C@@H](O)[C@@H](O[C@H]7[C@H](O)[C@@H](O)[C@@H](O[C@H]8[C@H](O)[C@@H](O)[C@@H](O[C@H]1[C@H](O)[C@H]2O)O[C@@H]8CNC(O)[C@@H](N)CO)O[C@@H]7CNC(=O)[C@@H](N)CO)O[C@@H]6CNC(=O)[C@@H](N)CO)O[C@@H]5CNC(=O)[C@@H](N)CO)O[C@@H]4CNC(=O)[C@@H](N)CO)O[C@@H]3CNC(=O)[C@@H](N)CO (stereo partly drawn) | Non-toxic | > 25 µM | > 25 µM | 0.6 µM | – | – | – | –
